Measurements published in patent US6403357B1, “Thermostable D-hydantoinase and the application thereof” (National Science Council, priority 2000, dated 2002).
Like-named read-outs stand apart in the source and are kept apart here.

Legend:
Format in all cases: biochemical, Bacillus circulans
D-hydantoinase [1] = test: Substrate selection of D-hydantoinase; settings: substrate 10 mM; for Conversion to the corresponding N-carbamoyl amino acid / Specific activity: 50° C., 10 min; for Relative activity: percentage based on activity for dihydrouracil
Experimental: 10 mM Dihydrouracil, hydantoin, D,L-p-HPH, 5-[2-(methylthio)ethyl]hydantoin, and D,L-homophenylalanyl-hydantoin were used as substrates, respectively. The vector pQE-bcidht in E. coli NovaBlue, crude extracts thereof or the purified D-hydantoinase of the present invention was reacted with each substrate at 50° C. for 10 min. Enzyme activity was then measured.

D-hydantoinase [2] = test: Effects of chelator on D-hydantoinase activity; settings: chelator 10 μM, incubation for 10 hours
Experimental: The vector pQE-bcidht in E. coli NovaBlue, crude extracts thereof or the purified D-hydantoinase of the present invention was mixed with hydrophilic chelator, EDTA, and hydrophobic chelator, 2,6-dipicolinic acid, at 10 μM concentration, respectively. The mixture was incubated for 0-12 hours, and the enzyme activity was measured.

D-hydantoinase [3] = test: Effects of metal ions on D-hydantoinase activity
D-hydantoinase [4] = test: Effects of H2O2, NaCl and NH4Cl on D-hydantoinase activity; settings: 10 min; for Effect on enzyme activity: concentration as high as 0.8 M, room temperature
Experimental: The vector pQE-bcidht in E. coli NovaBlue, crude extracts thereof or the purified D-hydantoinase of the present invention was incubated at 25° C. for 10 min. Afterwards, the catalase was added to the solution to remove residual H2O2, and then the enzyme activity was measured. In addition, various concentrations of NaCl and NH4Cl were added to the solution containing D-hydantoinase. The solution was incubated at room temperature for 10 min, and the enzyme activity was measured.

D-hydantoinase [5] = test: Reaction pH of D-hydantoinase; settings: 10 mM D,L-p-HPH, 50° C., 10 min
Experimental: The substrate D,L-p-HPH was dissolved in various pH buffers at the final concentration of 10 mM. The vector pQE-bcidht in E. coli NovaBlue, crude extracts thereof or the purified D-hydantoinase of the present invention, were added to each buffer containing substrate, and incubated at 50° C. for 10 min. The specific activity of the enzyme was then measured.

D-hydantoinase [6] = test: Reaction temperature of D-hydantoinase; settings: 500 μM Mn2+, 10 mM D,L-p-HPH, pH 8.0, 10 min
Experimental: The vector pQE-bcidht in E. coli NovaBlue, crude extracts thereof or the purified D-hydantoinase of the present invention (containing 500 μM Mn^2+), was added to 10 mM substrate of D,L-p-HPH (dissolved in 50 mM Tris-HCl (pH 8.0)). The mixture was incubated at various temperature (30-90° C.) for 10 min. The specific activity of the enzyme was then measured.

D-hydantoinase [7] = test: Conditions of converting D,L-p-HPH by D-hydantoinase; settings: enzyme pre-mixed with Mn2+ and incubated in an ice solution for 4 days
Experimental: The reaction pH of D-hydantoinase is between 5 and 10. […] The substrate solubility and enzyme activity can be elevated by grinding D,L-p-HPH to powder form, dissolving the powdered substrate in 50 mM Tris-HCl (pH 8.0), followed by stirring the solution at room temperature for 2 hours. In addition, A suitable amount of DMSO can also enhance the solubility of substrate D,L-p-HPH, and elevate the conversion efficiency from D,L-p-HPH to D-p-HPG by the D-hydantoinase of the present invention.

D-hydantoinase [8] = test: Thermostability of D-hydantoinase; settings: after 60 days incubation at 50° C.
Experimental: The vector pQE-bcidht in E. coli NovaBlue, crude extracts thereof or the purified D-hydantoinase of the present invention (47 unit/mg; containing 500 μM Mn^2+), was incubated at 50° C. in a thermostat water bath. The specific activity of the enzyme was measured at various time intervals.

[9] = ion 500 μM, 15 min at room temperature, 10 mM D,L-p-HPH in 50 mM Tris-HCl pH 8.0
[10] = ion 500 μM, percentage based on activity without adding ions

`O=C1NC(=O)C(CCc2ccccc2)N1` (racemic) [D,L-Homophenylalanyl-hydantoin, D,L-homophenylalanyl-hydantoin] was tested, and the “Conversion to the corresponding N-carbamoyl amino acid” value (shortened to “Conversion”) (D-hydantoinase [1]) was “capable of converting”, the Specific activity (D-hydantoinase [1]) was 45.64 unit/mg and the Relative activity (D-hydantoinase [1]) was 84%.

With `O=C1NC(=O)C(c2ccc(O)cc2)N1` (racemic) [D,L-p-Hydroxyphenylhydantoin, D,L-p-hydroxyphenylhydantoin] the “Conversion” value (D-hydantoinase [1]) was “capable of converting”, the Specific activity (D-hydantoinase [1]) was 47.43 unit/mg and the Relative activity (D-hydantoinase [1]) was 87%.

For `O=C(O)c1cccc(C(=O)O)n1` [2,6-dipicolinic acid], the Retained enzyme activity (D-hydantoinase [2]) was 40%.

With `CSCCC1NC(=O)NC1=O` (stereo not shown) [5-[2-(Methylthio)ethyl]-hydantoin, 5-[2-(methylthio)ethyl]hydantoin] the “Conversion” value (D-hydantoinase [1]) was “capable of converting”, the Specific activity (D-hydantoinase [1]) was 21.48 unit/mg and the Relative activity (D-hydantoinase [1]) was 40%.

With `[Ca+2].[Cl-].[Cl-]` [CaCl2] the Specific activity (D-hydantoinase [3]; [9]) was 2.53 unit/mg and the Relative activity (D-hydantoinase [3]; [10]) was 88%.

With `[Cl-].[Cl-].[Co+2]` [CoCl2] the “Effect on enzyme activity” value (D-hydantoinase [3]) was “enhance the enzyme activity”, the “Increase of enzyme activity, times original activity” value (shortened to “Increase of enzyme activity”) (D-hydantoinase [3]) was 4.5 times and the Relative activity (D-hydantoinase [3]) was 252%. For the same molecule, the Specific activity (D-hydantoinase [3]; pH 8) was 7.25 unit/mg.

For `[Cl][Cu][Cl]` [CuCl2], the “Inhibition of D-hydantoinase activity” value (D-hydantoinase [3]; ion 500 μM) was 22%, the Specific activity (D-hydantoinase [3]; [9]) was 2.26 unit/mg and the Relative activity (D-hydantoinase [3]; [10]) was 78%.

`O=C1CCNC(=O)N1` [Dihydrouracil] gave a Specific activity (D-hydantoinase [1]) of 54.29 unit/mg, a Specific activity (D-hydantoinase [1]; listed as dihydrouracil) of 54 unit/mg and a Relative activity (D-hydantoinase [1]) of 100%.

In the case of `O=C(O)CN(CCN(CC(=O)O)CC(=O)O)CC(=O)O` [EDTA], the Retained enzyme activity (D-hydantoinase [2]) is reported as 70%.

`[Cl][Fe]([Cl])[Cl]` [FeCl3] was tested, and the Specific activity (D-hydantoinase [3]; [9]) was 2.52 unit/mg and the Relative activity (D-hydantoinase [3]; [10]) was 87.5%.

With `O=S(=O)([O-])[O-].[Fe+2]` [FeSO2] the Specific activity (D-hydantoinase [3]; [9]) was 2.52 unit/mg and the Relative activity (D-hydantoinase [3]; [10]) was 87.5%.

`OO` [H2O2] gave a Retained enzyme activity (D-hydantoinase [4]; 0.8 M H2O2, 25° C.) of 85%.

In the case of `O=C1CNC(=O)N1` [Hydantoin], the “Conversion” value (D-hydantoinase [1]) is reported as “capable of converting”, the Specific activity (D-hydantoinase [1]) is reported as 41.43 unit/mg and the Relative activity (D-hydantoinase [1]) is reported as 76%.

For `[Cl-].[Cl-].[Mg+2]` [MgCl2], the Specific activity (D-hydantoinase [3]; [9]) was 2.62 unit/mg and the Relative activity (D-hydantoinase [3]; [10]) was 91%.

In the case of `O=S(=O)([O-])[O-].[Mg+2]` [MgSO4], the Specific activity (D-hydantoinase [3]; [9]) is reported as 2.69 unit/mg and the Relative activity (D-hydantoinase [3]; [10]) is reported as 94%.

With `[Cl][Mn][Cl]` [MnCl2] the “Increase of enzyme activity” value (D-hydantoinase [3]; 500 μM Mn2+) was 7.7 times, the “Effect on enzyme activity” value (D-hydantoinase [3]; divalent metal ion added) was “enhance the enzyme activity” and the Specific activity (D-hydantoinase [3]; [9]) was 22.25 unit/mg. It also gave a Relative activity (D-hydantoinase [3]; [10]) of 773%.

With `Cl.N` [NH4Cl] the “Effect on enzyme activity” value (D-hydantoinase [4]) was “not affected”.

For `[Cl-].[Na+]` [NaCl], the “Effect on enzyme activity” value (D-hydantoinase [4]) was “not affected”.

In the case of `O=S(=O)([O-])[O-].[Ni+2]` [NiSO4], the “Increase of enzyme activity” value (D-hydantoinase [3]; 100 μM Ni2+) is reported as 1.3 times, the “Effect on enzyme activity” value (D-hydantoinase [3]; divalent metal ion added) is reported as “enhance the enzyme activity” and the Specific activity (D-hydantoinase [3]; [9]) is reported as 4.00 unit/mg. The Relative activity (D-hydantoinase [3]; [10]) was 139%.

`O=S(=O)([O-])[O-].[Zn+2]` [ZnSO4] was tested, and the “Inhibition of D-hydantoinase activity” value (D-hydantoinase [3]; ion 500 μM) was 50%, the Specific activity (D-hydantoinase [3]; [9]) was 1.44 unit/mg and the Relative activity (D-hydantoinase [3]; [10]) was 50%.

B1: D-hydantoinase: thermostable D-hydantoinase from Bacillus circulans, amino acid sequence SEQ ID NO:1, 461 amino acids, expressed in E. coli (protein)
chain: MKKWIRNGTVVTASDTYQADVLIDGEKVVAIGSDLQATDAEVIDATGYYLLPGGIDPHTHLDMPFGGTVTSDNFFTGTKAAAFGGTTSIVDFCLTSKGESLHSAIATWHEKARGKAVIDYGFHLMVSDANDHVLEELESVVNNEGITSLKVFMAYKNVLMADDETLFKTLIRAKELGALVQVHAENGDVLDYLTKQALAEGNTDPIYHAYTRPPEAEGEATGRAIALTALADAQLYVVHVSCADAVRRIAEAREKGWNVYGETCPQYLVLDITALEKPDFEGAKYVWSPPLREKWNQDVLWSALKNGILQTVGSDHCPFNFSGQKELGRRDFTKIPNGGPIIEDRMTILFSEGVRKGKISLNQFVDITSTKVAKLFGMFPQKGTIAVGSDADIVLFDPTVQRTISVETHHMNVDYNPFEGMQVHGDVISVLSRGAFVVRNKQFVGHAGAGRYVKRSTFARP
With B1 the “Enzyme activity” value (D-hydantoinase [5]; pH 4.0) was “loses its entire activity”, the Highest specific activity (D-hydantoinase [5]; pH 8.5) was 3.36 unit/mg and the Specific activity (D-hydantoinase [6]; 30° C.) was 9.0 unit/mg. The Highest specific activity (D-hydantoinase [6]; 60° C.) was 28.32 unit/mg, the Specific activity (D-hydantoinase [6]; 90° C.) was 4.26 unit/mg and the “Maximum specific activity for catalysis of D,L-p-HPH” value (D-hydantoinase [7]) was 47 unit/mg. The “Activity after long incubation” value (D-hydantoinase [8]) was “retains activity”.
